According to article PMC2760071 (Bioorganic & medicinal chemistry letters, 2009):
Values belong to the compound of their own block, whether it stands above or below them.

Tests used:
[1] = Photoisomerization / light stability of E and Z isomers
oCOX-1 = details: wild-type oCOX-1; cited from earlier work
ovine COX-1 [2] = target: T1, ovine COX-1 (Ovis aries, UniProt P05979); details: COX-1, 50 μM arachidonic acid (saturating)
T1 sequence (P05979 25-600): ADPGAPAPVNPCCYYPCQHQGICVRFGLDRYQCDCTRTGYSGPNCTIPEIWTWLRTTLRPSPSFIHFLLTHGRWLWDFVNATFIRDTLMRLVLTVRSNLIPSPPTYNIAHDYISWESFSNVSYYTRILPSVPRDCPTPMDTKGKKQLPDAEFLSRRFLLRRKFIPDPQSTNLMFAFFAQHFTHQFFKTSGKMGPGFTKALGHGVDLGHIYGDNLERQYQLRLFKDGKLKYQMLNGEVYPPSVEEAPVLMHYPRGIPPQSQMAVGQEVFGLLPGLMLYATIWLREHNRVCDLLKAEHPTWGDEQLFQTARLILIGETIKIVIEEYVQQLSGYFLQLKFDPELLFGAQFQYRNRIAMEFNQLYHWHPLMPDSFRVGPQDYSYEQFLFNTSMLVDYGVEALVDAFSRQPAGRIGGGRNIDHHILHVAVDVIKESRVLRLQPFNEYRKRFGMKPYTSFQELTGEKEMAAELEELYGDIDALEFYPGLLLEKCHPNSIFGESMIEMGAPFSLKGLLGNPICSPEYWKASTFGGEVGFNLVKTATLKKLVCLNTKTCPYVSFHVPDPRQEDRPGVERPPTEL

ovine COX-1 [3] = target: T1, ovine COX-1; details: COX-1, 5 μM vs 50 μM arachidonate, data not shown
murine COX-2 [4] = target: T2, murine COX-2 (Mus musculus, UniProt Q05769); experiment: Competitive COX inhibition assay, reduced arachidonate; assay type: biochemical; details: COX-2, 5 μM arachidonate, at the concentration ranges tested
T2 sequence (Q05769 18-604): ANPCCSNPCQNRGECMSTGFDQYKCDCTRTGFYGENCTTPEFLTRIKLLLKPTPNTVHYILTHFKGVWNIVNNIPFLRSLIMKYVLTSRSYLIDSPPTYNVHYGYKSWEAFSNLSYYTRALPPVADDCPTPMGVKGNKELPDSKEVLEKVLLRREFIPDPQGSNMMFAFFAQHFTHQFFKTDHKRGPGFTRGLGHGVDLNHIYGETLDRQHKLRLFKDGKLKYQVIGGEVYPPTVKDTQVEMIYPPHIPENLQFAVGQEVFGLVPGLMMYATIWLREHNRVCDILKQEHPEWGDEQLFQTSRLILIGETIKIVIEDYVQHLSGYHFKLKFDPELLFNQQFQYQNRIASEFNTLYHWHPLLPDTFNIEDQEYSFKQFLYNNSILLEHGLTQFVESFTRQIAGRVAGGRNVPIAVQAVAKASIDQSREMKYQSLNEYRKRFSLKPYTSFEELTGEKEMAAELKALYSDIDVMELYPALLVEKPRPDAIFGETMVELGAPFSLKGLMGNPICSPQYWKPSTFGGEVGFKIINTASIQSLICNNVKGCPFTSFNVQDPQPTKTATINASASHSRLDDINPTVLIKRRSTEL

murine COX-2 [5] = target: T2, murine COX-2; details: COX-2, 50 μM arachidonic acid (saturating)

behaviour on exposure to natural light ([1]; natural light, during HPLC purification): photoisomerized to the E-isomer
Structure (SMILES): CSc1ccc(/C=C2/C=C(CC(=O)O)c3cc(F)ccc32)cc1 [(Z)-2′-des-methyl sulindac sulfide]

photoisomerization (interconversion) ([1]; natural light and ultraviolet conditions): no interconversion was observed
maximal extent (plateau) of inhibition (ovine COX-1 [2]): around 75%
effect of reduced substrate concentration on ability to inhibit (ovine COX-1 [3]): not significantly affected
Structure (SMILES): CSc1ccc(/C=C2/C(C)=C(CC(=O)O)c3cc(F)ccc32)cc1 [sulindac sulfide, reference compound]

competitive inhibition (in words) (murine COX-2 [4]): no inhibition
percentage conversion to the Z-isomer ([1]; 370 nm, 24 hours, high-pressure mercury lamp): 1-2%
time-dependent inhibition (in words) (ovine COX-1 [2]): no time-dependent inhibition
time-dependent inhibition (in words) (murine COX-2 [5]): no time-dependent inhibition
Structure (SMILES): CSc1ccc(/C=C2\C=C(CC(=O)O)c3cc(F)ccc32)cc1
